Among the data in publication PMC8019873, “Histone Deacetylase Inhibitory and Cytotoxic Activities of the Constituents from the Roots of Sophora Pachycarpa” (Iranian Journal of Pharmaceutical Research : IJPR, 2020) are IC50 values, retold here.

Molecules are shown by their SMILES.

Assay [1] concerns HDAC. The experiment in a line: Whole-cell HDAC inhibition assay in HCT116 cells. The following applies: HCT116, 18 h, Boc-Lys(ε-Ac)-AMC substrate. It is filed as cell-based, human. How it is done:
(§1) The cellular HDAC assay was based on an assay published by Marek et al. ([16]). HCT116 and HeLa human cancer cell lines were seeded in 96-well tissue culture microplates (1.5 × 10^4 cells/90 µL culture medium in each well). […] The test compounds were dissolved in dimethyl sulfoxide (the final amount of DMSO/well was maintained at 0.1% V/V) and their concentrations adjusted to 70, 40, 20, 5, 1 μM through dilution with the growth medium. The reaction was started by adding 10 µL of 3 mM Boc-Lys (ε-Ac)-AMC (Bachem, Switzerland) to each well at a final concentration of 0.3 mM. The cells were incubated with the Boc-Lys (ε-Ac)-AMC for 3 h under cell culture conditions. […] The final volume of the assay is 210 µL in all the wells. After that, the solution was transferred into a black 96-well microplate with flat clear bottom and fluorescence intensity was detected at an excitation of 360 nm and emission of 470 nm in a NOVO star microplate reader (BMGLabTech, Offenburg, Germany).

For assay [2], the system named is HCT116 cells. The experiment in a line: AlamarBlue cytotoxic assay, HCT116. Type of assay: cell-based. Particulars: HCT-116, human colon cancer HCT116 cells, 48 h, read-out: Cytotoxicity IC50 HCT116. How it is done:
(§2) The cells were seeded in 96-well microplates (1 × 10^4 cells/100 µL in each well) and cultivated for 24 h before the addition of test compounds. Three wells for each concentration were seeded and triplicate plates were used. […] Then, the cells were incubated with the different concentrations of the test compounds, positive control and cell culture medium alone as a negative control for 48 h. After that, 10 μL of alamarBlue® reagent was added to the attached cells and incubated for another four hour. The absorbance was measured at 600 nm using an ELISA microplate reader (Epoch; Bio Tek, Winooski, VT, USA), and the percent viability of the cells was investigated relative to the negative control that was exposed to the culture medium without compounds of the plant. Then, IC50 values were calculated by nonlinear regression analysis using GraphPad Prism (Version 6.0) software.
For orientation: Resazurin is reduced to fluorescent resorufin, in cell work by metabolically active cells.

For assay [3], the system named is HeLa cells. The experiment in a line: AlamarBlue cytotoxic assay, HeLa. It is filed as cell-based. Particulars: human cervical HeLa cells, 48 h, read-out: Cytotoxicity IC50 HeLa. The procedure:
as §2

Assay [4] has as its system A549 cells. Kind of assay: AlamarBlue cytotoxic assay, A549. The following applies: Homo sapiens, lung A549 cells, 48 h, read-out: Cytotoxicity IC50 A549. It is filed as cell-based. How it is done: as §2
The test system of assay [5] is A2780 cells. Kind of assay: AlamarBlue cytotoxic assay, A2780. It is filed as cell-based. The following applies: Homo sapiens, ovarian cancer A2780 cells, 48 h, read-out: Cytotoxicity IC50 A2780. The procedure:
as §2

Assay [6] concerns HDAC. The experiment in a line: Whole-cell HDAC inhibition assay in HeLa cells. It is filed as cell-based, human. Particulars: 18 h, Boc-Lys(ε-Ac)-AMC substrate. How it is done: as §1
In assay [7] the test system is A2780, A549, HeLa, and HCT116 human cancer cell lines. Kind of assay: AlamarBlue cytotoxic assay, range over four cancer cell lines. Type of assay: cell-based. Particulars: read-out: Cytotoxicity IC50 range against four cancer cell lines. How it is done:
Compounds 1-5 were tested against HeLa, HCT116, A2780and A549 human cancer cell lines using a nonfluorescent substrate, AlamarBlue® (BioSource Invitrogen, Paisely, UK) and subjected to cell viability assay as described with some modification ([15]). The cell lines were cultured in RPMI-1640 medium (Cambrex Bioscience) supplemented with 10% fetal bovine serum (FBS), and 1% penicillin/streptomycin at 37 °C in an atmosphere of 95% […] and 5% CO2. The cells were seeded in 96-well microplates (1 × 10^4 cells/100 µL in each well) and cultivated for 24 h before the addition of test compounds. Three wells for each concentration were seeded and triplicate plates were used. The test compounds were dissolved in dimethyl sulfoxide (the final amount of DMSO per well was maintained at 0.1%V/V) and their concentrations adjusted to 100, 50, 25, 12.5, 6.25 μM through dilution with the growth medium. […] The absorbance was measured at 600 nm using an ELISA microplate reader (Epoch; Bio Tek, Winooski, VT, USA), and the percent viability of the cells was investigated relative to the negative control that was exposed to the culture medium without compounds of the plant. Then, IC50 values were calculated by nonlinear regression analysis using GraphPad Prism (Version 6.0) software.

Assay [8] has as its system pan-HDAC. Kind of assay: Whole-cell pan-HDAC inhibition, range over HCT116 and HeLa cells. It is filed as cell-based, human. Particulars: read-out: pan-HDAC inhibitory activity IC50 range. How it is done:
as §1

For orientation: IC50 means the concentration needed to halve the response being measured. On to `COc1c(C2COc3cc(O)c(CC=C(C)C)c(O)c3C2=O)ccc(O)c1CC=C(C)C` (centres unmarked) [Compound 1, isosophoranone], for which the IC50 in assay [1] stood at 26.5 µM; in assay [2], 39.3 µM; in assay [3], 43.2 µM; in assay [4], 53.5 µM; in assay [5], 49.3 µM; in assay [6], 34.7 µM.

In the case of `C=C(C)[C@H](CC=C(C)C)Cc1c(O)cc(O)c2c1O[C@H](c1ccc(O)cc1O)CC2=O` [Compound 2, sophoraflavanone G], the IC50 was above 70 µM in assay [1]; 54.4 µM in assay [2]; 44.2 µM in assay [3]; 72.5 µM in assay [4]; 65.5 µM in assay [5]; above 70 µM in assay [6].

Regarding `Oc1ccc(C2Oc3cc(O)cc(O)c3C2O)cc1` (centres unmarked) [Compound 3, 2-(4-hydroxyphenyl)-2,3-dihydrobenzo[b]furan-3,4,6-triol], the IC50 in assay [1] is above 70 µM; in assay [2], 54 µM; in assay [3], 69.4 µM; in assay [4], 76.5 µM; in assay [5] it was above 100 µM; in assay [6], above 70 µM.

As to `C=C(C)C(CC=C(C)C)Cc1c2c(c(O)c3c1OC(c1ccc(O)cc1)C3c1cc(O)cc(O)c1)C(=O)CC(c1ccc(O)cc1O)O2` (centres unmarked) [Compound 4, alopecurone J], the half-inhibitory concentration (IC50) was 0.08 µM in assay [1]; 18 µM in assay [2]; 9.97 to 30.9 µM in assay [7]; 9.97 µM in assay [3]; 0.08 to 3.85 µM in assay [8]; 30.9 µM in assay [4]. The half-inhibitory concentration (IC50) in assay [5] amounted to 21.9 µM; in assay [6], 3.85 µM.

Turning to `CC(C)=CCc1c2c(c(O)c3c1O[C@@H](c1ccc(O)cc1)[C@@H]3c1cc(O)cc(O)c1)C(=O)C[C@@H](c1ccc(O)cc1O)O2` [Compound 5, alopecurone P], the half-maximal inhibitory concentration (IC50) in assay [1] was 22.2 µM; in assay [2] it was 48.4 µM; in assay [3], 52.6 µM; in assay [4] it was 54.9 µM; in assay [5], 69 µM; in assay [6], 24.9 µM.
